Experimental data from US7772197B2, “1,3,5-triazines for treatment of viral diseases” (1,3,5-Triazines for Treatment of Viral Diseases, priority 2002, dated 2010).

Key:
[1] = system: reverse transcriptase of HIV NL4-3; assay: DHAdC viral mutagenicity, sense strand of RT fragment; format: cell-based; conditions: 50 μM
Experimental: The viral genomic DNA from cells treated with the deoxyribonucleoside analog 5-aza-dC (30 μM) was purified using a Qiagen DNeasy® Kit. 1 μg of genomic DNA was used to amplify a 1 kb region of the HIV-1 RT proviral DNA by PCR. The PCR product was then cloned into a TOPO® cloning vector. A Millipore Miniprep Kit was used to purify plasmid containing proviral inserts. About 45 positive clones were sequenced in both directions by a Beckman Coulter CEQ 8000. The sequencing results were analyzed and assembled using the DNASTAR Stagman program. Each mutated base was counted and the mutation rate was calculated over the total number of sequenced nucleotides.
Assessment of DHAdC viral mutagenicity was carried out as described above for 5-aza-dC. Mutagenesis of the sense strand of a 0.9 kb fragment of reverse transcriptase of HIV NL4-3 was determined after a single passage in SN1212 (50 μM) and compared to an untreated control.

[2] = target: T1, polymerase-α (Homo sapiens, UniProt P09884); assay: Substrate for cellular polymerase; format: biochemical; conditions: data not shown
T1 sequence (P09884 1-1462): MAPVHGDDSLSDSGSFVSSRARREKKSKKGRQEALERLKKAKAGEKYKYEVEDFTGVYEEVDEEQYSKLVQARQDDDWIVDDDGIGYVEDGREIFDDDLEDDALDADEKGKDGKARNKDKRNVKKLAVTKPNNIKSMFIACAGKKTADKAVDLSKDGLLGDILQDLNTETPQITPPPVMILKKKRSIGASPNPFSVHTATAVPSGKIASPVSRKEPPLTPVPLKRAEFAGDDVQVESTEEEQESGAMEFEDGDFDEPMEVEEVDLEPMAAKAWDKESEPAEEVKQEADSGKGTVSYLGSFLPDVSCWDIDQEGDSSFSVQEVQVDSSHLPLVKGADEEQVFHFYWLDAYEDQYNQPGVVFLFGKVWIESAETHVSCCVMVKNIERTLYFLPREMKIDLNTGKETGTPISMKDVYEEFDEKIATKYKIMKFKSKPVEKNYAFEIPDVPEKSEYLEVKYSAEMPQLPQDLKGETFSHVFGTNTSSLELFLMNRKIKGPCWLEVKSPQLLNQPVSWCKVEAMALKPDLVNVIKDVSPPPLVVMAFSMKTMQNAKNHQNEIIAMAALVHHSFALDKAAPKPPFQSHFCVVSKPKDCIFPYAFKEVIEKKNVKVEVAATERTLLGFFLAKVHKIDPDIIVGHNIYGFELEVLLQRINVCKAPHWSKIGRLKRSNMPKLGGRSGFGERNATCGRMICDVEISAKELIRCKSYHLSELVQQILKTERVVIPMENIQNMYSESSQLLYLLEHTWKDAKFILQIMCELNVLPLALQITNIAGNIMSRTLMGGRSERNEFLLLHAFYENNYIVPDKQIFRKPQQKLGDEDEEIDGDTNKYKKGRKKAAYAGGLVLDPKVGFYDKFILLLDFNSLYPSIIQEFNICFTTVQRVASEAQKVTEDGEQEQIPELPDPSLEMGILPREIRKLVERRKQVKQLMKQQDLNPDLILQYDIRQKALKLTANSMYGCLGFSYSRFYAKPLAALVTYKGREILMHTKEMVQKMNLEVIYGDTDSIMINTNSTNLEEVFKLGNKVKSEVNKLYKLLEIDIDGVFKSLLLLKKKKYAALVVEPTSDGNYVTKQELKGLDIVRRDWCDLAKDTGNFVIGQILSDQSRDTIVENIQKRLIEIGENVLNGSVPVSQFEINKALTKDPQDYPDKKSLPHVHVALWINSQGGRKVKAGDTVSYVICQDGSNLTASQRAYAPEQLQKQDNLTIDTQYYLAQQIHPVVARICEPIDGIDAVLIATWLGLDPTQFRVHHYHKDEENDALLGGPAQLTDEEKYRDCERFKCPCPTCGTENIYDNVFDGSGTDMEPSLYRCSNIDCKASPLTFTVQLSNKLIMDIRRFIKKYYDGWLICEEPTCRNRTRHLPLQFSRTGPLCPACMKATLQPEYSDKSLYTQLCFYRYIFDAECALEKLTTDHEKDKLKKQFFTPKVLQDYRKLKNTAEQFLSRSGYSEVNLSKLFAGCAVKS

[3] = Pharmacokinetics of DHAdC base and DHAdC-palmitate in rats; format: in vivo; conditions: rat, plasma, IV
[4] = system: hgprt gene in CHO (Chinese Hamster Ovary) cells; assay: hgprt assay, mutagenesis of cellular DNA, 6-thioguanine selection; format: cell-based; conditions: 1 mM, data not shown
Experimental: (Data not shown.) An hgprt assay was also performed to test mutagenesis of cellular DNA by DHAdC. The assay was performed on CHO (Chinese Hamster Ovary) cells and mutants were selected for resistance to 6-thioguanine (6-TG). EMS (ethyl methyl sulfonate), a known mutagen, was used as a positive control.

[5] = system: HIV; assay: In vitro passaging assay of DHAdC; format: cell-based; conditions: 100 nM, quadruplicate
Experimental: 0.1 ml of a 3×10^5 cells/ml MT-2 cell suspension were seeded in 96-well plates at 3×10^4 cells/well. The compounds to be assayed were diluted in a separate 96-well at ten times (10×) the concentration needed for the screen. […] This was followed by the addition of HIV-1 at an MOI of 0.01, except for the three wells serving as the uninfected control. 0.1 ml of cRPMI was added to the uninfected well instead of virus. After the addition of virus, the 96-well plate was centrifuged at 1,200×g for two hours to enhance the adsorption of the virus by the MT-2 cells (see, e.g., O'Doherty, J. Virol. 74:10074-10080 (2000)). After the centrifugation step, the 96-well plate was then incubated in a 37° C. incubator containing 5% CO2 for three days. At the end of this time period the virus and cells were mixed by gentle pipetting followed by a 1 minute spin at 600×g to pellet the cells. The supernatant of each well was then serially diluted 1,000-fold into new 96-well plates to serve as inoculum for the next passage and assayed by ELISA for the amount of p24 produced. The next passage was performed as described above, except that the virus used to infect the cells was derived from the 1,000-fold dilution plate. […]

**Q.** Which “C⇄T transitions, fold enhancement” value [1] does the source give for `NC1=NC(=O)N([C@H]2C[C@H](O)[C@@H](CO)O2)CN1` [DHAdC, 1-(2-Deoxy-β-D-ribofuranosyl)-4-amino-1,2,5,6-tetrahydro-1,3,5-triazin-2-one] here?
**A.** 4.6 fold

**Q.** What about the “mutation rate in HIV RT, fold higher than control” value [1] of the same compound?
**A.** 1.4 fold

**Q.** What about the “A→C C→A mutations” value ([1]; number of mutations) of the same compound?
**A.** 1

**Q.** What about the “A→T T→A mutations” value ([1]; number of mutations) of the same compound?
**A.** 1

**Q.** What about the “G→A A→G mutations” value ([1]; number of mutations) of the same compound?
**A.** 17

**Q.** What about the “G→C C→G mutations” value ([1]; number of mutations) of the same compound?
**A.** 3

**Q.** And the “G→T T→G mutations” value ([1]; number of mutations)?
**A.** 3

**Q.** And the “T→C C→T mutations” value ([1]; number of mutations)?
**A.** 12

**Q.** What about the mutation rate % ([1]; single passage) of the same compound?
**A.** 0.015%

**Q.** And the “mutation rate in HIV RT” value ([1]; treated, control 0.0011)?
**A.** 0.0015

**Q.** And the “substrate for polymerase-α” value [2]?
**A.** poor substrate

**Q.** And the AUC(0-inf) [3]?
**A.** 75000 ng·h/mL

**Q.** And the “mutation frequency of cellular gene hgprt” value [4]?
**A.** did not increase above background

**Q.** And the “passage after which no infectious virus was recovered” value [5]?
**A.** 12 passage

**Q.** What about the “passage by which p24 fell permanently below the limit of detection (4 ng/ml)” value [5] of the same compound?
**A.** ≤ 8 passage
